The NIST ThermoML archive (doi:10.1021/je4009238)
Numbers after ± are expanded uncertainties.

How the values were obtained:
[1] = refractive index (Na D-line) (dimensionless); settings: 101.33 kPa, Liquid
[2] = 101 kPa, Liquid
[3] = refractive index (Na D-line) (dimensionless); xn = mol fraction of the nth substance listed; settings: 101 kPa, Liquid
[4] = xn = mol fraction of the nth substance listed; settings: 101 kPa, Liquid

CCCCCCn1cc[n+](C)c1.[Cl-] [1-hexyl-3-methylimidazolium chloride]
Settings | mass density, 288.15 K [kg/m3] | mass density, 298.15 K [kg/m3] | mass density, 308.15 K [kg/m3] | mass density, 318.15 K [kg/m3] | refractive index, 288.15 K | refractive index, 298.15 K | refractive index, 308.15 K | refractive index, 318.15 K | viscosity, 308.15 K [mPa·s] | viscosity, 318.15 K [mPa·s]
[1] | – | – | – | – | 1.5125 ± 0.0013 | 1.50953 ± 0.0013 | 1.50667 ± 0.0013 | 1.5039 ± 0.0013 | – | –
[2] | 1047.99 ± 1 | 1042.2 ± 0.98 | 1036.43 ± 0.94 | 1030.62 ± 0.9 | – | – | – | – | 2044.2 | 884.2

CCCCCCCC[n+]1ccn(C)c1.[Cl-] [1-methyl-3-octylimidazolium chloride]
Settings | mass density, 288.15 K [kg/m3] | mass density, 298.15 K [kg/m3] | mass density, 308.15 K [kg/m3] | mass density, 318.15 K [kg/m3] | refractive index, 288.15 K | refractive index, 298.15 K | refractive index, 308.15 K | refractive index, 318.15 K | viscosity, 308.15 K [mPa·s] | viscosity, 318.15 K [mPa·s]
[1] | – | – | – | – | 1.49008 ± 0.01 | 1.48709 ± 0.01 | 1.48413 ± 0.01 | 1.48122 ± 0.01 | – | –
[2] | 1022.06 ± 10 | 1015.97 ± 10 | 1009.8 ± 10 | 1003.62 ± 10 | – | – | – | – | 155.03 ± 38 | 65.95 ± 7.6

CCCCCCCC[n+]1ccn(C)c1.[Cl-] [1-methyl-3-octylimidazolium chloride] + CN(C)C=O
Settings | mass density, [4] [kg/m3] | refractive index, [3] | viscosity, [4] [mPa·s]
288.15 K, x1 = 0.0306 | 962.61 ± 10 | 1.4392 ± 0.01 | 1.617 ± 0.21
288.15 K, x1 = 0.0647 | 970.04 ± 10 | 1.44535 ± 0.01 | 2.007 ± 0.25
288.15 K, x1 = 0.1021 | 976.96 ± 10 | 1.4504 ± 0.01 | 2.763 ± 0.33
288.15 K, x1 = 0.1457 | 983.52 ± 10 | 1.45598 ± 0.01 | 4.132 ± 0.48
288.15 K, x1 = 0.1939 | 989.54 ± 10 | 1.46074 ± 0.01 | 5.958 ± 0.68
288.15 K, x1 = 0.2496 | 995.13 ± 10 | 1.46531 ± 0.01 | 8.425 ± 0.95
288.15 K, x1 = 0.3143 | 1000.4 ± 10 | 1.46967 ± 0.01 | 13.28 ± 1.5
288.15 K, x1 = 0.39 | 1005.26 ± 10 | 1.47407 ± 0.01 | 20.46 ± 2.3
288.15 K, x1 = 0.4809 | 1009.79 ± 10 | 1.47791 ± 0.01 | 34.23 ± 3.8
288.15 K, x1 = 0.5908 | 1013.76 ± 10 | 1.48169 ± 0.01 | 60.63 ± 6.5
288.15 K, x1 = 0.7259 | 1017.15 ± 10 | 1.48534 ± 0.01 | 122.33 ± 25
288.15 K, x1 = 1 | 1022.06 ± 10 | 1.49008 ± 0.01 | –
298.15 K, x1 = 0.0306 | 953.41 ± 10 | 1.43459 ± 0.01 | 1.348 ± 0.18
298.15 K, x1 = 0.0647 | 961.21 ± 10 | 1.44113 ± 0.01 | 1.629 ± 0.21
298.15 K, x1 = 0.1021 | 968.34 ± 10 | 1.44613 ± 0.01 | 2.262 ± 0.28
298.15 K, x1 = 0.1457 | 975.24 ± 10 | 1.45203 ± 0.01 | 3.234 ± 0.38
298.15 K, x1 = 0.1939 | 981.46 ± 10 | 1.45641 ± 0.01 | 4.582 ± 0.53
298.15 K, x1 = 0.2496 | 987.32 ± 10 | 1.46173 ± 0.01 | 6.215 ± 0.71
298.15 K, x1 = 0.3143 | 992.89 ± 10 | 1.46588 ± 0.01 | 9.498 ± 1.1
298.15 K, x1 = 0.39 | 997.98 ± 10 | 1.47066 ± 0.01 | 14.03 ± 1.6
298.15 K, x1 = 0.4809 | 1002.82 ± 10 | 1.47429 ± 0.01 | 22.18 ± 2.5
298.15 K, x1 = 0.5908 | 1006.97 ± 10 | 1.47835 ± 0.01 | 37.33 ± 4.1
298.15 K, x1 = 0.7259 | 1010.6 ± 10 | 1.48212 ± 0.01 | 69.31 ± 8.3
298.15 K, x1 = 1 | 1015.97 ± 10 | 1.48709 ± 0.01 | –
308.15 K, x1 = 0.0306 | 944.19 ± 10 | 1.43007 ± 0.01 | 1.172 ± 0.16
308.15 K, x1 = 0.0647 | 952.27 ± 10 | 1.4361 ± 0.01 | 1.448 ± 0.19
308.15 K, x1 = 0.1021 | 959.68 ± 10 | 1.44189 ± 0.01 | 1.909 ± 0.24
308.15 K, x1 = 0.1457 | 966.87 ± 10 | 1.44766 ± 0.01 | 2.615 ± 0.32
308.15 K, x1 = 0.1939 | 973.37 ± 10 | 1.45241 ± 0.01 | 3.636 ± 0.43
308.15 K, x1 = 0.2496 | 979.5 ± 10 | 1.45731 ± 0.01 | 4.753 ± 0.55
308.15 K, x1 = 0.3143 | 985.36 ± 10 | 1.46212 ± 0.01 | 7.07 ± 0.8
308.15 K, x1 = 0.39 | 990.69 ± 10 | 1.46672 ± 0.01 | 10.12 ± 1.1
308.15 K, x1 = 0.4809 | 995.8 ± 10 | 1.47089 ± 0.01 | 15.15 ± 1.7
308.15 K, x1 = 0.5908 | 1000.19 ± 10 | 1.47504 ± 0.01 | 24.36 ± 2.7
308.15 K, x1 = 0.7259 | 1004.44 ± 10 | 1.47897 ± 0.01 | 43.04 ± 4.8
308.15 K, x1 = 1 | 1009.8 ± 10 | 1.48413 ± 0.01 | 155.03 ± 38
318.15 K, x1 = 0.0306 | 934.98 ± 10 | 1.42562 ± 0.01 | 1.013 ± 0.14
318.15 K, x1 = 0.0647 | 943.27 ± 10 | 1.43143 ± 0.01 | 1.289 ± 0.17
318.15 K, x1 = 0.1021 | 951.06 ± 10 | 1.438 ± 0.01 | 1.661 ± 0.21
318.15 K, x1 = 0.1457 | 958.48 ± 10 | 1.44342 ± 0.01 | 2.182 ± 0.27
318.15 K, x1 = 0.1939 | 965.3 ± 10 | 1.44849 ± 0.01 | 2.97 ± 0.35
318.15 K, x1 = 0.2496 | 971.71 ± 10 | 1.45347 ± 0.01 | 3.753 ± 0.44
318.15 K, x1 = 0.3143 | 977.79 ± 10 | 1.4586 ± 0.01 | 5.427 ± 0.62
318.15 K, x1 = 0.39 | 983.45 ± 10 | 1.46306 ± 0.01 | 7.536 ± 0.85
318.15 K, x1 = 0.4809 | 988.76 ± 10 | 1.46765 ± 0.01 | 10.77 ± 1.2
318.15 K, x1 = 0.5908 | 993.39 ± 10 | 1.47179 ± 0.01 | 16.68 ± 1.9
318.15 K, x1 = 0.7259 | 997.95 ± 10 | 1.47589 ± 0.01 | 28.25 ± 3.1
318.15 K, x1 = 1 | 1003.62 ± 10 | 1.48122 ± 0.01 | 65.95 ± 7.6

CN(C)C=O [dimethylformamide]
Settings | mass density, [2] [kg/m3] | refractive index, [1] | viscosity, [2] [mPa·s]
288.15 K | 953.79 ± 0.83 | 1.43304 ± 0.00063 | 0.936 ± 0.11
298.15 K | 944.26 ± 0.89 | 1.42858 ± 0.00063 | 0.825 ± 0.1
308.15 K | 934.69 ± 0.95 | 1.42381 ± 0.00063 | 0.736 ± 0.098
318.15 K | 925.16 ± 1 | 1.41909 ± 0.00063 | 0.665 ± 0.095

CN(C)C=O [dimethylformamide] + CCCCCCCC[n+]1ccn(C)c1.[Cl-]
x2 = 0
Settings | mass density, [4] [kg/m3] | refractive index, [3] | viscosity, [4] [mPa·s]
288.15 K | 953.79 ± 10 | 1.43304 ± 0.01 | 0.936 ± 0.14
298.15 K | 944.26 ± 10 | 1.42858 ± 0.01 | 0.825 ± 0.12
308.15 K | 934.69 ± 10 | 1.42381 ± 0.01 | 0.736 ± 0.12
318.15 K | 925.16 ± 10 | 1.41909 ± 0.01 | 0.665 ± 0.11

CN(C)C=O [dimethylformamide] + CCCCCCn1cc[n+](C)c1.[Cl-]
x2 = 0
Settings | mass density, [4] [kg/m3] | refractive index, [3] | viscosity, [4] [mPa·s]
288.15 K | 953.79 ± 0.83 | 1.43304 ± 0.0012 | 0.936 ± 0.22
298.15 K | 944.26 ± 0.89 | 1.42858 ± 0.0012 | 0.825 ± 0.21
308.15 K | 934.69 ± 0.95 | 1.42381 ± 0.0012 | 0.736 ± 0.2
318.15 K | 925.16 ± 1 | 1.41909 ± 0.0012 | 0.665 ± 0.19

CN(C)C=O [dimethylformamide] + CCCCn1cc[n+](C)c1.[Cl-]
x2 = 0
Settings | mass density, [4] [kg/m3] | refractive index, [3] | viscosity, [4] [mPa·s]
288.15 K | 953.79 ± 0.83 | 1.43304 ± 0.00063 | 0.936 ± 0.11
298.15 K | 944.26 ± 0.89 | 1.42858 ± 0.00063 | 0.825 ± 0.1
308.15 K | 934.69 ± 0.95 | 1.42381 ± 0.00063 | 0.736 ± 0.098
318.15 K | 925.16 ± 1 | 1.41909 ± 0.00063 | 0.665 ± 0.095

CN(C)C=O [dimethylformamide] + CCn1cc[n+](C)c1.[Cl-]
x2 = 0
Settings | mass density, [4] [kg/m3] | refractive index, [3] | viscosity, [4] [mPa·s]
288.15 K | 953.79 ± 0.83 | 1.43304 ± 0.00063 | 0.936 ± 0.11
298.15 K | 944.26 ± 0.89 | 1.42858 ± 0.00063 | 0.825 ± 0.1
308.15 K | 934.69 ± 0.95 | 1.42381 ± 0.00063 | 0.736 ± 0.098
318.15 K | 925.16 ± 1 | 1.41909 ± 0.00063 | 0.665 ± 0.095
